Experimental data reported in the supplement of paper PMC10307832.

Legend:
Test in all cases: relative viability (nuclei count vs DMSO), 5 days (fraction); higher = more cells survive
[1] = compound: C=C(c1ccc(C(=O)O)cc1)c1cc2c(cc1C)C(C)(C)CCC2(C)C [Bexarotene] + COc1cc2c(Oc3ccc(NC(=O)C4(C(=O)Nc5ccc(F)cc5)CC4)cc3F)ccnc2cc1OCCCN1CCOCC1 [Foretinib] (partner 0.25 µM)
How it was run: (§1)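 For relative viability, nuclei counts in treated wells were divided by those in vehicle wells. Lung cancer cell lines had been pin-tool dosed in 1536-well plates the day after seeding and cultured for 5 days, then fixed and stained in one step (final 0.05% Triton X-100, 1% formaldehyde, 1 ug/ml Hoechst) and imaged at 4×. Doses were one drug alone or a fixed anchor-drug dose plus five library-drug doses (not always all listed) in √10 steps, and values are duplicate-plate medians.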

[2] = compound: C=C(c1ccc(C(=O)O)cc1)c1cc2c(cc1C)C(C)(C)CCC2(C)C [Bexarotene] + Cc1cc(Nc2cc(N3CCN(C)CC3)nc(Sc3ccc(NC(=O)C4CC4)cc3)n2)n[nH]1 [Tozasertib] (partner 0.1 µM)
How it was run: as §1

[3] = compound: C=C(c1ccc(C(=O)O)cc1)c1cc2c(cc1C)C(C)(C)CCC2(C)C [Bexarotene] + NC(=O)Nc1cc(-c2cccc(F)c2)sc1C(=O)N[C@H]1CCCNC1 [AZD7762] (partner 0.2 µM)
How it was run: as §1

[4] = compound: C=C(c1ccc(C(=O)O)cc1)c1cc2c(cc1C)C(C)(C)CCC2(C)C [Bexarotene] + CCNC(=O)c1noc(-c2cc(C(C)C)c(O)cc2O)c1-c1ccc(CN2CCOCC2)cc1 [Luminespib] (partner 0.01 µM)
How it was run: as §1

Row | Cell Line | relative viability ([1]; first compound 0.08 µM) | relative viability ([1]; first compound 0.253 µM) | relative viability ([1]; first compound 0.8 µM) | relative viability ([1]; first compound 2.53 µM) | relative viability ([1]; first compound 8 µM) | relative viability ([2]; first compound 0.08 µM) | relative viability ([2]; first compound 0.253 µM) | relative viability ([2]; first compound 0.8 µM) | relative viability ([2]; first compound 2.53 µM) | relative viability ([2]; first compound 8 µM) | relative viability ([3]; first compound 0.08 µM) | relative viability ([3]; first compound 0.253 µM) | relative viability ([3]; first compound 0.8 µM) | relative viability ([3]; first compound 2.53 µM) | relative viability ([3]; first compound 8 µM) | relative viability ([4]; first compound 0.08 µM) | relative viability ([4]; first compound 0.253 µM) | relative viability ([4]; first compound 0.8 µM) | relative viability ([4]; first compound 2.53 µM) | relative viability ([4]; first compound 8 µM)
1 | HCC-15 | 1.09 | 1.07 | 1.05 | 1.05 | 0.996 | 0.357 | 0.531 | 0.415 | 0.44 | 0.34 | 1.23 | 1.17 | 1.27 | 1.1 | 1.44 | 0.192 | 0.314 | 0.321 | 0.353 | 0.231
2 | HCC-827 | 1.07 | 1.02 | 0.992 | 1.09 | 0.976 | 0.444 | 0.395 | 0.433 | 0.402 | 0.366 | 0.227 | 0.213 | 0.405 | 0.196 | 0.36 | 0.525 | 0.78 | 0.655 | 0.808 | 0.473
3 | HOP-62 | 1.35 | 1.28 | 1.23 | 1.14 | 1.08 | 0.352 | 0.366 | 0.408 | 0.391 | 0.363 | 0.626 | 1.04 | 0.718 | 0.412 | 0.669 | 1.07 | 1.1 | 1.01 | 1.09 | 0.978
4 | LC-2-ad | 0.976 | 1.01 | 0.969 | 0.982 | 0.893 | 0.438 | 0.503 | 0.408 | 0.41 | 0.434 | 0.87 | 0.907 | 0.875 | 0.867 | 0.928 | 1.01 | 0.978 | 1.04 | 1 | 1.1
5 | LCLC-97TM1 | 0.891 | 1 | 0.887 | 0.933 | 0.969 | 0.251 | 0.192 | 0.206 | 0.189 | 0.221 | 0.252 | 0.35 | 0.398 | 0.263 | 0.237 | 0.827 | 0.849 | 0.778 | 0.769 | 0.822
6 | LCLC-103H | 0.753 | 0.665 | 0.695 | 0.814 | 0.677 | 0.531 | 0.452 | 0.428 | 0.48 | 0.43 | 0.807 | 0.78 | 0.64 | 0.796 | 0.842 | 1.08 | 0.935 | 0.885 | 1.04 | 0.846
7 | LK-2 | 1.42 | 1.27 | 1.54 | – | 1.68 | 0.175 | 0.162 | 0.185 | – | 0.165 | 0.675 | 0.516 | 0.547 | 0.433 | 0.418 | 0.206 | 0.222 | 0.281 | – | 0.18
8 | LOU-NH91 | 0.88 | 0.89 | 0.84 | 0.878 | 0.786 | 0.643 | 0.624 | 0.665 | 0.637 | 0.598 | 0.85 | 0.766 | 0.759 | 0.741 | 0.712 | 0.364 | 0.318 | 0.346 | 0.287 | 0.268
9 | LU99A | 0.908 | 0.865 | 0.898 | 0.931 | 0.809 | 0.291 | 0.252 | 0.296 | 0.234 | 0.284 | 0.356 | 0.444 | 0.391 | 0.404 | 0.36 | 0.268 | 0.251 | 0.238 | 0.291 | 0.244
10 | LXF-289 | 1.18 | 1.02 | 1.02 | 1.09 | 1.22 | 0.166 | 0.196 | 0.213 | 0.137 | 0.141 | 1.21 | 1.34 | 1.32 | 1.37 | 1.48 | 0.8 | 0.824 | 0.798 | 0.874 | 0.8
11 | NCI-H23 | 0.888 | 1.06 | 0.921 | 1.01 | 0.785 | 0.383 | 0.619 | 0.365 | 0.287 | 0.333 | 0.297 | 0.239 | 0.231 | 0.261 | 0.196 | 0.229 | 0.201 | 0.238 | 0.234 | 0.204
12 | NCI-H322M | 1.06 | 1.14 | 0.946 | 0.977 | 0.978 | 0.508 | 0.505 | 0.488 | 0.475 | 0.445 | 0.518 | 0.645 | 0.585 | 0.548 | 0.568 | 1.05 | 0.902 | 0.862 | 0.982 | 0.812
13 | NCI-H358 | 0.8 | 0.929 | 0.708 | 0.818 | 0.722 | 0.0977 | 0.105 | 0.0984 | 0.108 | 0.121 | 0.546 | 0.511 | 0.505 | 0.49 | 0.572 | 0.136 | 0.306 | 0.325 | 0.244 | 0.121
14 | NCI-H441 | 1.01 | 1.04 | 1.13 | 0.841 | 0.927 | 0.709 | 0.758 | 0.631 | 0.676 | 0.656 | 1.5 | 1.28 | 1.24 | 1.1 | 1.01 | 0.373 | 0.384 | 0.314 | 0.295 | 0.377
15 | NCI-H460 | 1.1 | 0.99 | 0.976 | 1.02 | 1.01 | 0.541 | 0.452 | 0.481 | 0.399 | 0.427 | 0.694 | 0.701 | 0.701 | 0.668 | 0.735 | 0.0252 | 0.0297 | 0.0376 | 0.0318 | 0.0222
16 | NCI-H596 | 0.781 | 0.61 | 0.813 | 0.853 | 0.858 | 0.998 | 0.897 | 0.788 | 0.934 | 0.837 | 1.19 | 1.01 | 1.01 | 0.976 | 1.02 | 1.08 | 1.18 | 1.01 | 0.983 | 0.963
